Laboratory results reported in article PMC10305181, “A VEGFB-Based Peptidomimetic Inhibits VEGFR2-Mediated PI3K/Akt/mTOR and PLCγ/ERK Signaling and Elicits Apoptotic, Antiangiogenic, and Antitumor Activities” (Pharmaceuticals, 2023).
Bridge positions count the residues as written; N and C are the ends. Peptide text beside a SMILES is read from it.

Tested on: signaling proteins in 4T1 MCT cells
Experiment: Western blot analysis, 4T1 cells
Format: cell-based, murine
Experimental: Next, VEGFR2 signaling was investigated in 4T1 MCTs. […] Considering the implication of the PI3K/AKT/mTOR signaling pathway in most human cancers, the effect of C-VGB3 on this pathway was evaluated in 4T1 MCT cells. […] The NF-κB pathway is an important target of AKT, which contributes to abnormal cell proliferation and differentiation, the inhibition of apoptosis, enhanced metastasis, and treatment resistance. Therefore, the inhibition of upstream AKT signaling would be expected to downregulate NF-κB and/or p-NF-κB.
The levels of signaling proteins were investigated by the Western blot assay. 4T1 and HUVE cells stimulated by VEGF (20 ng·mL^−1) were treated with (0.40 μM) or without C-VGB3 (treatment and control groups, respectively) after starvation in a serum-free medium for 24 h. After washing with PBS buffer twice, the cells were treated with RIPA lysis buffer containing (Sigma, St. Louis, MO, USA). Bradford′s test was performed to estimate the protein concentration. Equal amounts of total protein were electrophoresed on a 10% SDS-polyacrylamide gel, separated, and then transferred to a nitrocellulose membrane. Nitrocellulose was soaked in a blocking buffer containing 5% dry milk, Tris-buffered saline, and Tween 20 (TBST) for 1 h at ambient temperature. The nitrocellulose membrane was then washed with wash buffer and treated with antibodies against VEGFR2 p-VEGFR2, AKT, p-AKT, PI3K, mTOR, p-mTOR, NF-κB, p-NFκB, P53, MDM2, Bax, Bcl2, Bid, Bim, Apaf-1, cytochrome c, caspase-9, Fas (CD95), DR4 (CD261), DR5 (CD262), caspase3, caspase7, caspase8, PARP1, ERK 1/2, p-ERK1/2, Ras, Raf, Cdk4, GSK-3β, cyclin D1, vimentin, N-cadherin, E-cadherin, FAK, p-FAK, paxillin, p-paxillin, and β-actin overnight at 4 °C. The next steps were performed as described previously. Because molecular weight ranges of target signaling proteins are very close, individual gels were run for separate signaling proteins (Figure S7).

CC(C)C[C@@H]1NC(=O)CNC(=O)[C@H](CC(=O)O)NC(=O)[C@H](CC(=O)O)NC(=O)[C@@H]2CCCN2C(=O)[C@@H]2CCCN2C(=O)[C@H](CCCNC(=N)N)NC(=O)[C@@H](NC(=O)[C@@H](N)CCC(=O)O)CSSC[C@@H](C(=O)O)NC1=O [C-VGB3] (H-ECRPPDDGLC-OH; disulfide 2-10)
increase in cleaved PARP1 (4T1 (second of 'respectively'), 0.40 μM, p < 0.0001): 4.05 fold
Fas expression (4T1, 0.40 μM): not affected
increase in Bax/Bcl2 ratio (4T1, 0.40 μM): ~5.25 fold
increased level of cleaved caspase-3 (4T1, 0.40 μM): 4.0 times
increased level of cleaved caspase-7 (4T1, 0.40 μM): 4.1 times
increased level of cleaved caspase-9 (4T1, 0.40 μM): 3.5 times
Bax level (4T1, 0.40 μM, p < 0.0001): increased
DR4 level (4T1, 0.40 μM, p < 0.0001): increase
MDM2 level (4T1, 0.40 μM, p < 0.0001): markedly decreased
P53 level (4T1, 0.40 μM, p < 0.0001): enormously increased
VEGFR2 level (4T1, 0.40 μM, p < 0.0001): suppressed
paxillin (4T1, 0.40 μM, p < 0.0001): substantially inhibited
p-VEGFR2 level (4T1, 0.40 μM, p = 0.0001): suppressed
p-paxillin (4T1, 0.40 μM, p = 0.0001): substantially inhibited
Apaf-1 (4T1, 0.40 μM, p = 0.001): promoted
Bcl2 expression (4T1, 0.40 μM, p = 0.001): decrease
Bid expression level (4T1, 0.40 μM, p = 0.001): increased
DR5 level (4T1, 0.40 μM, p = 0.001): increase
E-cadherin expression (4T1, 0.40 μM, p = 0.001): potently increased
FAK (4T1, 0.40 μM, p = 0.001): substantially inhibited
N-cadherin level (4T1, 0.40 μM, p = 0.001): reduced
p-AKT level (4T1, 0.40 μM, p = 0.001): significantly decreased
p-FAK (4T1, 0.40 μM, p = 0.001): substantially inhibited
p-mTOR level (4T1, 0.40 μM, p = 0.001): significantly decreased
Bim level (4T1, 0.40 μM, p = 0.02): increased
NF-κB level (4T1, 0.40 μM, p = 0.02): decreased levels
PI3K level (4T1, 0.40 μM, p = 0.02): significantly decreased
cytochrome c release (4T1, 0.40 μM, p = 0.02): promoted
mTOR level (4T1, 0.40 μM, p = 0.02): significantly decreased
p-NF-κB level (4T1, 0.40 μM, p = 0.02): decreased levels
vimentin level (4T1, 0.40 μM, p = 0.02): reduced
